Reference: ChEMBL document CHEMBL1147297, “4-Hydroxy-25-desoxyneorollinicin, a new bistetrahydrofuranoid acetogenin from Rollinia papilionella” (1989)

Assays:
Type in all cases: functional
[1] = tested on: A549; assay: Cytotoxicity against human A549 cells; settings: read-out: ED50 (the source's name)
[2] = tested on: MCF7; assay: Cytotoxicity against human MCF7 cells; settings: read-out: ED50 (the source's name)
[3] = tested on: P388; assay: Cytotoxicity against mouse P388 cells

SMILES	EC50 [1] [ng/mL]	EC50 [2] [ng/mL]	ED50 [3] [×10⁻⁸ ug/ml]
CCCCCCCCCC[C@@H](O)[C@@H]1CC[C@H]([C@H]2CC[C@@H]([C@@H](O)CCCCCCCCCCC(O)CC3=CC(C)OC3=O)O2)O1 (stereo partly drawn)	< 1	< 1	
CCCCCCCCC[C@@H](O)[C@@H](O)[C@@H]1CC[C@@H]([C@@H]2CC[C@@H]([C@@H](O)CCCCCCCCCCCCC3=CC(C)OC3=O)O2)O1 (stereo partly drawn) [ROLLINICIN]			2.9
